Non-standard residues stand in square brackets, D forms with d. Residues, ends and D or L forms follow the SMILES beside them. No end group written: not given here. Aib = CC(C)(N)C(=O)O
Tests used:
CD1 mice = test: Intestinotrophic activity assessment: small bowel weight in mice; format: in vivo; settings: for % Activity (small bowel inducing activity relative to native rat GLP-2(1-33) = 100%): mice, as Example 4; for % Increase in small bowel weight: CD1 mice, 2.5 μg peptide s.c. b.i.d. in PBS, sacrificed 10 or 14 days, relative to vehicle only
Protocol: Recipients were CD1 mice obtained from Charles River Laboratory (Ontario, Canada). The CD1 mice were aged-matched females at time of injection (n=3-4 per group), 6 weeks of age, unless otherwise specified. The animals were allowed a minimum of 24 hours to acclimatize to the laboratory facility before the initiation of each experiment. Animals were identified by ear punch. The mice were not restricted by diet or activity during the experiments. The light/dark cycle was 12 hours, between 6 pm to 6 am. Controls were age- and sex-matched (n=3-4) animals. Mice were injected subcutaneously, twice a day (b.i.d.), with 2.5 μg peptide in a total volume of 0.5 cc of PBS and were monitored daily in the laboratory facility. Animals were sacrificed 10 or 14 days after injection, and were fasted at least 20 hours before sacrifice.
The mice were anaesthetised with CO2 and exsanguinated by cardiac puncture. Blood was collected in 75 μl of TED (Trasysol; EDTA (5000 KIU/ml: 1.2 mg/ml; Diprotin-A), and the blood was centrifuged at 14 k×g for 5 minutes and the plasma was stored at −70 prior to analysis. The small bowel was removed from the peritoneal cavity, from pylorus to cecum, cleaned weighed and measured. For comparative purpose, sections from each animal were obtained from the identical anatomical position. Fragments each measuring 1.5-2.0 cm in length were obtained 8±2 cm, 18±2 cm, 32±2 cm from pylorus for histomorphometry representing proximal jejunum, distal jejunum and distal ileum. Each small bowel fragment was opened longitudinally on its antimesenteric border in a tissue block and then placed on 10% formalin (vol./vol.) overnight, then transferred to 70% […].
Percentage change in small bowel weight was calculated by dividing the mean change in bowel weight of analog treated mice, relative to mice treated with vehicle only, by the mean bowel weight of mice treated with vehicle only, and multiplying this figure by 100.
Experiments assessing the small bowel inducing activity of various analogs was repeated as described above for Example 4. In these experiments, the small bowel inducing activity of each analog in mice was calculated relative to that of native rat GLP-2(1-33) (expressed as 100% of activity). Resistance of analogs to DPP-IV cleavage was performed as described above in Example 3.

DPP-IV = DPP-IV (Homo sapiens, UniProt P27487); test: Assay for resistance to dipeptidyl peptidase IV (RP-HPLC of cleavage product); settings: human, isolated human placental DPP-IV (dipeptidyl peptidase IV), pH 7.4, % Cleaved by DPP-IV, as Example 3: human placental DPP-IV, 37° C., PBS pH 7.4
DPP-IV, sequence (P27487 whole entry): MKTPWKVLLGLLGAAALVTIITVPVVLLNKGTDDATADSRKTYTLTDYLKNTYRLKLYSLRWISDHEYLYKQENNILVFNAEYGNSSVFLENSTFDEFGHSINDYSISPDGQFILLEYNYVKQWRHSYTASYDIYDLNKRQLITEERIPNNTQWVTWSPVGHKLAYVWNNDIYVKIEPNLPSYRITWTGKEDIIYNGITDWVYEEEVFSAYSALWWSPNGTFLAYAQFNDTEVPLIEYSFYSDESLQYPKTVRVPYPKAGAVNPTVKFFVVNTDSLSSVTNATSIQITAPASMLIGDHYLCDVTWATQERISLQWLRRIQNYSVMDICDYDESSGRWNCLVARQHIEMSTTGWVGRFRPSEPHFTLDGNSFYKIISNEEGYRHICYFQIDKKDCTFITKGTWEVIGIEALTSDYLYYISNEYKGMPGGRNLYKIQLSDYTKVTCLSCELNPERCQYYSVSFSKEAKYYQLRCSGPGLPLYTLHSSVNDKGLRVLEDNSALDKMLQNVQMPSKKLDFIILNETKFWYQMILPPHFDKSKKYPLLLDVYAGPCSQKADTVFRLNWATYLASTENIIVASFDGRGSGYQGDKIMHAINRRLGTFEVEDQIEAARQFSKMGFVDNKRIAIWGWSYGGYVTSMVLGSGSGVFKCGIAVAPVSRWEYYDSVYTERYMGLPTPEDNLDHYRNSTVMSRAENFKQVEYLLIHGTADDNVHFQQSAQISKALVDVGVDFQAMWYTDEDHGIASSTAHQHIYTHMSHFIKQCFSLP
Protocol: The mixture was incubated at 37° C. in a circulating water bath for 24 hours. The incubation was quenched by the addition of 50 μl of a solution of diprotin A prepared at a concentration of 4 mg/ml in PBS. Each peptide was tested in duplicate.
Each sample was analyzed by reverse-phase (RP) HPLC as follows: 90 μl of the quenched incubation mixture was injected onto a Rainin Dynamax 300 Å, C18, 5 micron, 4.6×250 millimeter column. The samples were eluted with 0.1% trifluoroacetic acid (TFA) in water modified with 0.1% acetonitrile using a linear gradient and a flow rate of 1 ml per minute. Sample components were detected at 214 nanometers (nm). The extent of cleavage was measured by relative integration of the peak corresponding to the cleavage product compared to that of the remaining undigested parent peptide.

In the case of `CC[C@H](C)[C@H](NC(=O)[C@H](Cc1ccccc1)NC(=O)[C@H](CC(=O)O)NC(=O)[C@H](CCCNC(=N)N)NC(=O)[C@H](C)NC(=O)[C@H](C)NC(=O)[C@H](CC(C)C)NC(=O)[C@H](CC(N)=O)NC(=O)[C@H](CC(=O)O)NC(=O)[C@H](CC(C)C)NC(=O)[C@@H](NC(=O)[C@@H](NC(=O)[C@H](CC(N)=O)NC(=O)[C@H](CCSC)NC(=O)[C@H](CCC(=O)O)NC(=O)[C@H](CC(=O)O)NC(=O)[C@H](CO)NC(=O)[C@H](Cc1ccccc1)NC(=O)[C@H](CO)NC(=O)CNC(=O)[C@H](CC(=O)O)NC(=O)C(C)(C)NC(=O)[C@@H](N)Cc1c[nH]cn1)[C@@H](C)O)[C@@H](C)CC)C(=O)N[C@@H](CC(N)=O)C(=O)N[C@@H](Cc1c[nH]c2ccccc12)C(=O)N[C@@H](CC(C)C)C(=O)N[C@H](C(=O)N[C@@H](CCC(N)=O)C(=O)N[C@H](C(=O)N[C@@H](CCCCN)C(=O)N[C@H](C(=O)N[C@H](C(=O)N[C@@H](CC(=O)O)C(=O)O)[C@@H](C)O)[C@@H](C)CC)[C@@H](C)O)[C@@H](C)CC` [[Aib2]hGLP-2(1-33)] (H-H[Aib]DGSFSDEMNTILDNLAARDFINWLIQTKITD-OH), the “% Activity (small bowel inducing activity relative to native rat GLP-2(1-33) = 100%)” value (CD1 mice) is reported as 202% and the metabolised at 24 h, 0.19 mg/ml (DPP-IV) is reported as 0%.

With `CC[C@H](C)[C@H](NC(=O)[C@H](Cc1ccccc1)NC(=O)[C@H](CC(=O)O)NC(=O)[C@H](CCCNC(=N)N)NC(=O)[C@H](C)NC(=O)[C@H](C)NC(=O)[C@H](CC(C)C)NC(=O)[C@H](CC(N)=O)NC(=O)[C@H](CC(=O)O)NC(=O)[C@H](CC(C)C)NC(=O)[C@@H](NC(=O)[C@@H](NC(=O)[C@H](CC(N)=O)NC(=O)[C@H](CCSC)NC(=O)[C@H](CCC(=O)O)NC(=O)[C@H](CC(=O)O)NC(=O)[C@H](CO)NC(=O)[C@H](Cc1ccccc1)NC(=O)[C@H](CO)NC(=O)CNC(=O)[C@H](CC(=O)O)NC(=O)[C@@H](C)NC(=O)[C@@H](N)Cc1c[nH]cn1)[C@@H](C)O)[C@@H](C)CC)C(=O)N[C@@H](CC(N)=O)C(=O)N[C@@H](Cc1c[nH]c2ccccc12)C(=O)N[C@@H](CC(C)C)C(=O)N[C@H](C(=O)N[C@@H](CCC(N)=O)C(=O)N[C@H](C(=O)N[C@@H](CCCCN)C(=O)N[C@H](C(=O)N[C@H](C(=O)N[C@@H](CC(=O)O)C(=O)O)[C@@H](C)O)[C@@H](C)CC)[C@@H](C)O)[C@@H](C)CC` [[D-Ala2]hGLP-2(1-33)] the “% Activity (small bowel inducing activity relative to native rat GLP-2(1-33) = 100%)” value (CD1 mice) was 130% and the metabolised at 24 h, 0.19 mg/ml (DPP-IV) was 0%.

`CC[C@H](C)[C@H](NC(=O)[C@H](Cc1ccccc1)NC(=O)[C@H](CC(=O)O)NC(=O)[C@H](CCCNC(=N)N)NC(=O)[C@H](C)NC(=O)[C@H](C)NC(=O)[C@H](CC(C)C)NC(=O)[C@H](CC(N)=O)NC(=O)[C@H](CC(=O)O)NC(=O)[C@H](CC(C)C)NC(=O)[C@@H](NC(=O)[C@@H](NC(=O)[C@H](CC(N)=O)NC(=O)[C@H](CCSC)NC(=O)[C@H](CCC(=O)O)NC(=O)[C@H](CC(=O)O)NC(=O)[C@H](CO)NC(=O)[C@H](Cc1ccccc1)NC(=O)[C@H](CO)NC(=O)CNC(=O)[C@H](CC(=O)O)NC(=O)CNC(=O)[C@@H](N)Cc1c[nH]cn1)[C@@H](C)O)[C@@H](C)CC)C(=O)N[C@@H](CC(N)=O)C(=O)N[C@@H](Cc1c[nH]c2ccccc12)C(=O)N[C@@H](CC(C)C)C(=O)N[C@H](C(=O)N[C@@H](CCC(N)=O)C(=O)N[C@H](C(=O)N[C@@H](CCCCN)C(=O)N[C@H](C(=O)N[C@H](C(=O)N[C@@H](CC(=O)O)C(=O)N[C@@H](CCCNC(=N)N)C(=O)O)[C@@H](C)O)[C@@H](C)CC)[C@@H](C)O)[C@@H](C)CC` [[Gly2, Arg34]hGLP-2(1-34)] was tested, and the “% Activity (small bowel inducing activity relative to native rat GLP-2(1-33) = 100%)” value (CD1 mice) was about 250% and the metabolised at 24 h, 0.19 mg/ml (DPP-IV) was 0%.

`CC[C@H](C)[C@H](NC(=O)[C@H](Cc1ccccc1)NC(=O)[C@H](CC(=O)O)NC(=O)[C@H](CCCNC(=N)N)NC(=O)[C@H](C)NC(=O)[C@H](C)NC(=O)[C@H](CC(C)C)NC(=O)[C@H](CC(N)=O)NC(=O)[C@H](CC(=O)O)NC(=O)[C@H](CC(C)C)NC(=O)[C@@H](NC(=O)[C@@H](NC(=O)[C@H](CC(N)=O)NC(=O)[C@H](CCSC)NC(=O)[C@H](CCC(=O)O)NC(=O)[C@H](CC(=O)O)NC(=O)[C@H](CO)NC(=O)[C@H](Cc1ccccc1)NC(=O)[C@H](CO)NC(=O)CNC(=O)[C@H](CC(=O)O)NC(=O)CNC(=O)[C@@H](N)Cc1c[nH]cn1)[C@@H](C)O)[C@@H](C)CC)C(=O)N[C@@H](CC(N)=O)C(=O)N[C@@H](Cc1c[nH]c2ccccc12)C(=O)N[C@@H](CC(C)C)C(=O)N[C@H](C(=O)N[C@@H](CCC(N)=O)C(=O)N[C@H](C(=O)N[C@@H](CCCCN)C(=O)N[C@H](C(=O)N[C@H](C(=O)N[C@@H](CC(=O)O)C(=O)N[C@@H](Cc1ccc(O)cc1)C(=O)O)[C@@H](C)O)[C@@H](C)CC)[C@@H](C)O)[C@@H](C)CC` [[Gly2, Tyr34]hGLP-2(1-34)] was tested, and the “% Activity (small bowel inducing activity relative to native rat GLP-2(1-33) = 100%)” value (CD1 mice) was 297% and the metabolised at 24 h, 0.19 mg/ml (DPP-IV) was 0%.

In the case of “H-HGDGSFSDEMNTALDNLAARDFINWLIQTKITD-OH [[Gly2,Ala13]hGLP-2(1-33)]”, the “% Increase in small bowel weight” value (CD1 mice) is reported as 18% and the “% Activity (small bowel inducing activity relative to native rat GLP-2(1-33) = 100%)” value (CD1 mice) is reported as 67%.

In the case of “H-HGDGSFSDEMNTIADNLAARDFINWLIQTKITD-OH [[Gly2,Ala14]hGLP-2(1-33)]”, the “% Activity (small bowel inducing activity relative to native rat GLP-2(1-33) = 100%)” value (CD1 mice) is reported as 30%.

With “H-HGDGSFSDEMNTILDALAARDFINWLIQTKITD-OH [[Gly2,Ala16]hGLP-2(1-33)]” the “% Increase in small bowel weight” value (CD1 mice) was 36% and the “% Activity (small bowel inducing activity relative to native rat GLP-2(1-33) = 100%)” value (CD1 mice) was 130%.

With “H-HGDGSFSDEMNTILDNAAARDFINWLIQTKITD-OH [[Gly2,Ala17]hGLP-2(1-33)]” the “% Increase in small bowel weight” value (CD1 mice) was 36% and the “% Activity (small bowel inducing activity relative to native rat GLP-2(1-33) = 100%)” value (CD1 mice) was 130%.

“H-HGDGSFSDEMNTILDNLAAADFINWLIQTKITD-OH [[Gly2,Ala20]hGLP-2(1-33)]” was tested, and the “% Increase in small bowel weight” value (CD1 mice) was 46% and the “% Activity (small bowel inducing activity relative to native rat GLP-2(1-33) = 100%)” value (CD1 mice) was 105%.

For “H-HGDGSFSDEMNTILDNLAARAFINWLIQTKITD-OH [[Gly2,Ala21]hGLP-2(1-33)]”, the “% Increase in small bowel weight” value (CD1 mice) was 35% and the “% Activity (small bowel inducing activity relative to native rat GLP-2(1-33) = 100%)” value (CD1 mice) was 125%.

“H-HGDGSFSDEMNTILDNLAARDFANWLIQTKITD-OH [[Gly2,Ala23]hGLP-2(1-33)]” was tested, and the “% Activity (small bowel inducing activity relative to native rat GLP-2(1-33) = 100%)” value (CD1 mice) was 24%.

“H-HGDGSFSDEMNTILDNLAARDFINALIQTKITD-OH [[Gly2,Ala25]hGLP-2(1-33)]” was tested, and the “% Activity (small bowel inducing activity relative to native rat GLP-2(1-33) = 100%)” value (CD1 mice) was 18%.

“H-HGDGSFSDEMNTILDNLAARDFINWAIQTKITD-OH [[Gly2,Ala26]hGLP-2(1-33)]” was tested, and the “% Activity (small bowel inducing activity relative to native rat GLP-2(1-33) = 100%)” value (CD1 mice) was 28%.

With “H-HGDGSFSDEMNTILDNLAARDFINWLAQTKITD-OH [[Gly2,Ala27]hGLP-2(1-33)]” the “% Increase in small bowel weight” value (CD1 mice) was 22% and the “% Activity (small bowel inducing activity relative to native rat GLP-2(1-33) = 100%)” value (CD1 mice) was 82%.

For “H-HGDGSFSDEMNTILDNLAARDFINWLIATKITD-OH [[Gly2,Ala28]hGLP-2(1-33)]”, the “% Increase in small bowel weight” value (CD1 mice) was 31% and the “% Activity (small bowel inducing activity relative to native rat GLP-2(1-33) = 100%)” value (CD1 mice) was 130%.

“H-HGDGSFSDEMNTILDNLAARDFINWLIQTAITD-OH [[Gly2,Ala30]hGLP-2(1-33)]” was tested, and the “% Activity (small bowel inducing activity relative to native rat GLP-2(1-33) = 100%)” value (CD1 mice) was 24%.

With “H-HGDGSFSDEMNTILDNLAARDFINWLIQTKATD-OH [[Gly2,Ala31]hGLP-2(1-33)]” the “% Increase in small bowel weight” value (CD1 mice) was 28% and the “% Activity (small bowel inducing activity relative to native rat GLP-2(1-33) = 100%)” value (CD1 mice) was 100%.

Compound “HSQGSFSDEMNTILDNLAARDFINWLIQTKITD [[Ser2,Gln3]hGLP-2(1-33)]” has a metabolised at 24 h, 0.19 mg/ml (DPP-IV) of 0%.

In the case of “RRADGSFSDEMNTILDNLATRDFINWLIQTKITD [[Arg-2,Arg-1]ratGLP-2(2-33)]”, the metabolised at 24 h, 0.19 mg/ml (DPP-IV) is reported as 0%.

With [Met SO2^10]rGLP-2 the “% Increase in small bowel weight” value (CD1 mice) was 8%.
